What was measured:
Assay type in all cases: in vivo
[1] = system: Tobacco Budworm (Heliothis virescens); assay: Insecticidal test for tobacco budworm, treated cotton cotyledon leaf disc; parameters: key: A: 90–100; B: 80–89; C: 70–79; D: 60–69; E: 50–59; F: less than 50; G: Inactive; details: cotton cotyledon leaf-dip, 2nd instar larvae, 5 days
[2] = system: Beet Armyworm (Spodoptera exigua); assay: Insecticidal test for beet armyworm, treated lepidopteran diet; parameters: key: A: 90–100; B: 80–89; C: 70–79; D: 60–69; E: 50–59; F: less than 50; G: Inactive; details: on diet surface, second-instar larvae, 5 days
How it was run: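 Test compound formulated at 400 ppm in 2:1 acetone:tap water; 250 μL applied onto surface of modified Shorey lepidopteran diet, five cups per compound (one cup = one replicate). After solvent air-dried, one second-instar larva placed on treated diet per cup.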

[3] = system: Cabbage Looper (Trichoplusia ni); assay: Insecticidal test for cabbage looper, treated cabbage leaf disc; parameters: key: A: 90–100; B: 80–89; C: 70–79; D: 60–69; E: 50–59; F: less than 50; G: Inactive; details: cabbage leaf-dip, 2nd instar larvae, 5 days
[4] = system: Cotton Aphid (Aphis gossypii); assay: Insecticidal test for cotton aphid, spray on infested squash cotyledons; details: 50 ppm spray, 3 days
How it was run: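 Squash cotyledons were infested with all aphid life stages 16–20 h beforehand, then sprayed on both sides to runoff with 50 ppm compound (acetone:ethanol, 0.05% Tween 20). After 3 days at 26 °C and 40% RH, aphids were counted under a microscope, and percent control is population reduction versus untreated.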

[5] = system: Two-spotted Spider Mite (Tetranychus urticae); assay: Insecticidal test for two-spotted spider mite, ovicide method; parameters: key: A: 90–100; B: 80–89; C: 70–79; D: 60–69; E: 50–59; F: less than 50; G: Inactive; details: cotton leaf discs, 6 days
How it was run: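 Cotton leaf discs (eight, 2.2 cm each) received ten adult female two-spotted spider mites, which laid eggs for 24 hours before being taken off. The discs were then set on an agar substrate and kept at 24° C. and 90% RH for 6 days to assess ovicidal control.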

[6] = system: Sweetpotato Whitefly (Bemisia tabacia); assay: Insecticidal test for sweetpotato whitefly, spray on cotton plants; parameters: key: A: 90–100; B: 80–89; C: 70–79; D: 60–69; E: 50–59; F: less than 50; G: Inactive; details: 200 ppm spray, 13 days, large nymphs
How it was run: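 Five-week cotton plants trimmed to two leaves carried 2 days of whitefly oviposition, then adults were removed. Leaves were sprayed top and bottom with 200 ppm compound in water with 0.05% Tween 20 (acetone:ethanol co-solvent), four replicates. After 13 days at 28° C/60% RH, 3rd–4th instar nymphs were counted; percent control versus solvent-only sprayed plants.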

Structure (SMILES) | TBW: activity at 400 ppm against tobacco budworm (% control rating) [1] | BAW: activity at 400 ppm against beet armyworm (% control rating) [2] | CL: activity at 400 ppm against cabbage looper (% control rating) [3] | CA: activity at 50 ppm against cotton aphid (% control rating) [4] | SM: activity against two-spotted spider mite (% control rating) [5] | WF: activity at 200 ppm against whitefly (% control rating) [6]
Cc1c(-c2nc(-c3c(F)cccc3Cl)nn2C)csc1-c1ccc(OC(F)(F)C(F)Cl)cc1 (stereo not drawn) | A (90–100) | A (90–100) | A (90–100) | B (80–89) | A (90–100) | A (90–100)
Cc1c(-c2nc(-c3c(F)cccc3Cl)nn2C)csc1-c1ccc(OC(F)(F)CF)cc1 | G | A (90–100) | F (less than 50) | A (90–100) | G | A (90–100)
Cc1c(-c2nc(-c3c(F)cccc3Cl)nn2C)csc1-c1ccc(OC(F)(F)C(Cl)Cl)cc1 | A (90–100) | A (90–100) | A (90–100) | B (80–89) | A (90–100) | A (90–100)
Cc1c(-c2nc(-c3c(F)cccc3Cl)nn2C)csc1-c1ccc(OC(C)C)cc1 | F (less than 50) | G | G | A (90–100) | G | G
CC(C)=COc1ccc(-c2scc(-c3nc(-c4c(F)cccc4Cl)nn3C)c2C)cc1 | F (less than 50) | A (90–100) | A (90–100) | A (90–100) | A (90–100) | A (90–100)
COCCOc1ccc(-c2scc(-c3nc(-c4c(F)cccc4Cl)nn3C)c2C)cc1 | G | B (80–89) | B (80–89) | C (70–79) | D (60–69) | F (less than 50)
Cc1c(-c2nc(-c3c(F)cccc3Cl)nn2C)csc1-c1cccc(C(F)(F)F)c1F | G | G | A (90–100) | A (90–100) | F (less than 50) | E (50–59)
Cc1c(-c2nc(-c3c(F)cccc3Cl)nn2C)csc1-c1ccc(Cl)cc1F | F (less than 50) | G | A (90–100) | A (90–100) | A (90–100) | G
Cc1c(-c2nc(-c3c(F)cccc3Cl)nn2C)csc1-c1ccc(Cl)c(F)c1 | G | F (less than 50) | A (90–100) | A (90–100) | A (90–100) | G
Cc1c(-c2nc(-c3c(F)cccc3Cl)nn2C)csc1-c1ccc(F)cc1 | F (less than 50) | G | D (60–69) | B (80–89) | B (80–89) | F (less than 50)
Cn1nc(-c2c(F)cccc2Cl)nc1-c1csc(-c2ccc(C(F)(F)F)cc2F)c1 | D (60–69) | A (90–100) | A (90–100) | C (70–79) | C (70–79) | F (less than 50)
Cc1c(-c2ccc(OC(F)(F)C(F)Br)cc2)csc1-c1nc(-c2c(F)cccc2Cl)nn1C (stereo not drawn) | B (80–89) | A (90–100) | A (90–100) | A (90–100) | G | A (90–100)
Cc1c(-c2ccc(OC(F)(F)C(F)Cl)cc2)csc1-c1nc(-c2c(F)cccc2Cl)nn1C (stereo not drawn) | B (80–89) | A (90–100) | A (90–100) | B (80–89) | C (70–79) | A (90–100)
Cc1c(-c2ccc(OC(F)(F)C(F)C(F)(F)F)cc2)csc1-c1nc(-c2c(F)cccc2Cl)nn1C (stereo not drawn) | A (90–100) | A (90–100) | A (90–100) | D (60–69) | A (90–100) | A (90–100)
Cc1c(-c2nc(-c3c(F)cccc3Cl)nn2C)sc(Br)c1-c1ccc(OC(F)(F)C(F)Br)cc1 (stereo not drawn) | F (less than 50) | A (90–100) | A (90–100) | B (80–89) | G | F (less than 50)
Cc1c(-c2nc(-c3c(F)cccc3Cl)nn2C)csc1-c1ccc(OC(F)(F)C(F)C(F)(F)F)cc1 (stereo not drawn) [drawing 216] | A (90–100) | A (90–100) | A (90–100) | D (60–69) | B (80–89) | A (90–100)
Cc1c(-c2nc(-c3c(F)cccc3Cl)nn2C)csc1-c1ccc(F)cc1F [drawing 224] | D (60–69) | G | A (90–100) | A (90–100) | G | G

From US7056940B2, “Insecticidal 3-(2,6-disubstituted phenyl)-5-[5-arylthien-2-yl]-1,2,4-triazoles” (Dow AgroSciences LLC, priority 2001, dated 2006)
